# Measurements as given in patent US20160129005A1, “ADENINE DERIVATIVES HAVING IMMUNOMODULATING ANTI-INFLAMMATORY AND ANALGESIC ACTIVITY” (MEDESTEA RESEARCH & PRODUCTION S.p.A., priority 2011, published 2016).
# Columns and labels:
# [1] = tested on: U937 cells; assay: Secretion of pro-inflammatory cytokines by LPS-stimulated U937 cells (ELISA); type: cell-based, human; conditions: drug with LPS (12 hrs) or added after LPS for 2 or 6 hours, FIG. 1
# Protocol: The production in vitro of MCP-1 (monocyte chemoattractant protein-1), TNF-α (tumour necrosis factor alpha), IL-6 (interleukin 6) was analysed. These cytokines induce the production of other cytokines that attract leukocytes to the site of inflammation, potentiating the immune response. This amplifies leukocyte “recruitment” at the site of inflammation, promoting “extravasation” of immune cells from the peripheral circulation.
# The U937 cells were plated at a density of 250 000 cells/ml and left in quiescence for 24 hours.
# The drug was added in fresh medium, simultaneously or after removal of LPS from the culture. The cells were kept in an incubator at 37° C. with supply of CO2 at 5%.
# Analysis of the production of growth factors was performed on the cellular supernatants collected, by ELISA assay using commercial kits (Human TNF-α Quantikine ELISA Kit code DTA00C, R&D Systems assay. Human IL-6 Quantikine ELISA Kit code D6050, R&D Systems assay. Human CCL2/MCP-1 Quantikine ELISA Kit code DCP00, R&D Systems assay).
# [2] = tested on: male Sprague Dawley rats; assay: Pain from chemotherapeutic drugs: model with paclitaxel (von Frey, Hargreaves); type: in vivo, rat; conditions: P≦0.001
# Protocol: One of the best validated models for testing this effect is that described hereunder; repeated administration of paclitaxel to rats. The animals (male Sprague Dawley rats weighing 250-300 g; Harlan, Italy) were treated with paclitaxel (2 mg/kg) administered intraperitoneally on alternate days (day 0,2,4,6). The behavioural tests for thermal and mechanical sensitivity were carried out on day 1 (the day following the first injection of paclitaxel), day 10, day 14 (7 days from the last injection), day 24 (peak severity of hyperalgesia and allodynia), day 30 and day 35 (day on which the animals were sacrificed). The animals (n=15) were divided into three experimental groups. The first group (A) received the treatment with paclitaxel, and was treated daily with […], 6 mg/kg by intraperitoneal injection from day 14 to day 35; the second group (B) treated with paclitaxel, was treated from day 14 to 35 with only the vehicle, and finally the third group consisted of naive animals (C). The results obtained are shown in the bar charts in FIGS. 18 and 19.
# [3] = tested on: DBA/1J mice; assay: Rheumatoid arthritis: type II collagen immunization; type: in vivo, mouse
# Protocol: Rheumatoid arthritis (RA) is a chronic inflammatory disease that affects the joints in particular and is manifested by pain, stiffness and synovitis, which lead to destruction of the joint. Immunization of DBA/1J mice with type II collagen (CII) by intradermal injection, at the base of the tail, of 0.2 ml of an emulsion containing 2 mg/ml of bovine CII in complete Freund adjuvant induces T cells and autoantibodies specific to CII with clinical and histopathological signs that reproduce RA. Eighteen to twenty days after immunization, signs of inflammation appear, affecting one or more joints. At the first clinical signs of inflammation (inflammation of the digits and joints) with a score above 1.5 (Camps et al., 2005), we treated the animals with […] intraperitoneally (0.25 mg).
# To establish the degree of infiltration of T cells in the arthritic lesions, sections fixed in formalin and embedded in paraffin were incubated with rabbit polyclonal anti-CD3 antibodies. After detection with peroxidase-labelled secondary antibodies, each sample was evaluated at 40× magnification and 3 immunoreactive “hot spots” were selected for counting the CD3^+ lymphocytes at 200× magnification.
# [4] = tested on: mdx mice; assay: Muscular dystrophy model; type: in vivo, mouse
# Text: The mdx mouse is characterized by a nonsense mutation in the dystrophin gene and constitutes an experimental model of DMD. The muscle of mdx is histologically normal in early postnatal development, but goes towards necrosis starting from the third week of life. The mdx mice show high levels of creatine kinase (CK) in the serum and accumulation of inflammatory cells, both markers of muscular degeneration. To assess the effect of […] in the progression of dystrophy and of inflammation in DMD, we treated mdx mice (n=10) at 4 weeks of age (in accordance with the recent SOPs for preclinical drug trials in mdx) with […] (0.25 mg/mouse) intraperitoneally every day for two weeks. The same number of mice of the same age was treated with the vehicle as control. After two weeks of treatment with […], the CK levels had decreased by 70% (P<0.05) (FIG. 33).
# Cross sections of anterior tibial muscles stained with haematoxylin/eosin were quantified in duplicate in blind conditions with ImageJ software. In the same sections we also assessed centralization of the nucleus, degeneration of muscle fibres and their regeneration. […] The values obtained for the mice treated with […] were similar to those obtained for the control mice of the same age and genotype but without mutation in the dystrophin gene.
# To assess the effect of […] on the inflammatory infiltrate in the muscle of mdx mice, the muscle sections were decorated with anti-CD3 antibodies (T cells). This analysis detected a 40% decrease in the number of cells positive for CD3.
# [5] = tested on: NOD/scid mice; assay: Graft-versus-host disease (human PBMCs); type: in vivo, mouse
# Protocol: Two groups of NOD/scid mice of 8-10 weeks were used, and were kept in cages under sterile flow at an SPF animal facility.
# On day −1, to avoid residual activity of natural killer cells, the mice were administered an anti-NK antibody intraperitoneally (TMβ-1.1 mg/mouse). On day 0 the mice were irradiated (300 rad) and they were administered, intraperitoneally, 20×10^6 human peripheral blood mononuclear cells (PBMCs), previously isolated. The PBMCs are isolated by means of buffy coat from blood from healthy donors.
# On the same day, the mice were treated with […] intraperitoneally at two doses, 10 mg/kg and 20 mg/kg. The treatment was repeated daily for 15 days.
# The mice were checked regularly 3 times a week to monitor the weight loss (also as independent variable) and signs of GvHD using a clinical score (0 for weight loss <10%, 1 for 10%-20%, 2 for 20%; hunching (0-2), reactivity (0-2), appearance of the fur (0-2), and skin integrity (0-2)), with a maximum score of 10.
# [6] = quantitative PCR, vs vehicle, FIG. 35
smiles,measurement,setting,value
C=C(C=O)OC(C=O)n1cnc2c(N)ncnc21 (centres unmarked) [2-[1-(6-aminopurin-9-yl)-2-oxoethoxy]prop-2-enal],cellular secretion of IL-6,[1],reduces the cellular secretion
same,cellular secretion of MCP-1,[1],reduces the cellular secretion
same,cellular secretion of TNF-α,[1],reduces the cellular secretion
same,threshold of mechanical sensitivity (von Frey),"[2]; group A, paclitaxel + IMMUFLAM 6 mg/kg i.p. daily from day 14, day 30, vehicle 11.85±0.61 s",18.28 ± 0.65 s
same,threshold of thermal sensitivity (Hargreaves),"[2]; paclitaxel + IMMUFLAM 6 mg/kg i.p. for twenty-one days (day 35), vehicle 5.82±0.18 s",10.21 ± 0.34 s
same,cartilage erosion (content of proteoglycans),"[3]; 0.25 mg i.p., FIG. 29A",significant reduction in cartilage erosion
same,CD3+ lymphocytes infiltrating the joint,"[3]; 0.25 mg i.p., FIG. 29B",significant reduction in CD3+ lymphocytes
same,clinical score,"[3]; 0.25 mg intraperitoneally, from score above 1.5, vs carrier, FIG. 29C",significant reduction in the clinical score
same,decrease of creatine kinase (CK) levels,"[4]; 0.25 mg/mouse i.p. daily for two weeks, P<0.05, FIG. 33",70%
same,centralization of the nucleus,[4]; anterior tibial muscles,significant reductions
same,number of degenerative fibres,[4]; anterior tibial muscles,significant reductions
same,area of the muscle cross sections (CSA),"[4]; anterior tibial muscles, vs carrier, FIG. 34",significant increase in area of the muscle cross sections
same,decrease in the number of cells positive for CD3 in muscle,[4]; anti-CD3 stained muscle sections,40%
same,I1-1β,[4]; [6],significant reduction
same,levels of mRNA typical of the Treg cells,[4]; [6],significant increase
same,resistance to GvHD (clinical score),"[5]; 10 mg/kg and 20 mg/kg i.p. daily for 15 days, FIG. 37","statistically significant, dose-dependent resistance to GvHD"
same,survival,"[5]; 10 and 20 mg/kg i.p., untreated all die within 50 days",reaching three months from transplant
